The term IC50 denotes the concentration that inhibits the measured activity by half.

Drawing on ChEMBL document CHEMBL1157706, “Inhibitors of human tyrosyl-DNA phospodiesterase (hTdp1) developed by virtual screening using ligand-based pharmacophores” (Bioorg Med Chem, 2010), this text covers IC50 for ten molecules.

Test [1] concerns the target T1, Tyrosyl-DNA phosphodiesterase 1 (Homo sapiens, UniProt Q9NUW8). The test can be described thus: Inhibition of human tyrosyl-DNA phosphodiesterase 1 after 30 mins by alpha high throughput screening assay in presence of 0.01% Tween-20.
For test [2], the target named is T1, Tyrosyl-DNA phosphodiesterase 1. Put plainly: Inhibition of human tyrosyl-DNA phosphodiesterase 1 after 30 mins by alpha high throughput screening assay in presence of 0.05% Tween-20.
The target is the same in test [3]. Put plainly: Inhibition of human tyrosyl-DNA phosphodiesterase 1 after 30 mins by alpha high throughput screening assay.

T1 sequence (Q9NUW8 whole entry): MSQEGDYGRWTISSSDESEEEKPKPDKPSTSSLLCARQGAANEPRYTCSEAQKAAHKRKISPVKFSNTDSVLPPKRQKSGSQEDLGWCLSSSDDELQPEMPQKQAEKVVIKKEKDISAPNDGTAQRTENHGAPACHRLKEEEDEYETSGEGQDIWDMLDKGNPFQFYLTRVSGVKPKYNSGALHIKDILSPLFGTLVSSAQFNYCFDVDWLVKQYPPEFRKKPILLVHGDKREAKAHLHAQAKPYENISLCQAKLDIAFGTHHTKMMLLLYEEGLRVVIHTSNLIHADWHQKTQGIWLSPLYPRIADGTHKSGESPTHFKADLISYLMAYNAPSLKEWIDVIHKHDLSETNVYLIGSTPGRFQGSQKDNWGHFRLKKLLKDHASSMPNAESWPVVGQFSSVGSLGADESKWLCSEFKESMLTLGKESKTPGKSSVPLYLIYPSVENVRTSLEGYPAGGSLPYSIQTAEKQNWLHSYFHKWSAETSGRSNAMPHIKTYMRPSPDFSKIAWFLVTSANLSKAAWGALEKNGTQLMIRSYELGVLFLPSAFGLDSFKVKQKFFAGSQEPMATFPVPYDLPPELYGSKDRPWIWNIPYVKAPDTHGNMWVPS

With `CCOC(=O)CN(C(=O)COC(=O)Cc1c[nH]c2ccccc12)c1ccc(F)cc1`, the half-inhibitory concentration (IC50) in test [1] stood at 7.94 µM; in test [2] it was 11.2 µM.
Take `O=c1c2ccccc2c2ccccc2c(=O)n1-c1cccc2c1ccc1c3ccccc3ccc21`: the IC50 in test [3] came to 5 µM.
Consider `O=C(/C=C/c1ccc(C(F)(F)F)cc1)OC(C(=O)NC1CC1)c1ccccc1` (stereo not drawn), for which the IC50 is 31.6 µM in test [1] and 44.7 µM in test [2].
With `COC(=O)c1ccc(COc2ccc(C3Nc4ccccc4C(=O)N3C3CC3)cc2OC)cc1` (stereo not drawn), the 50% inhibitory concentration (IC50) in test [1] was determined as 44.7 µM; in test [2], 89.1 µM.
The like results for `Cc1cc(C)nc(N/C=C(\C#N)C(=O)c2cccc(CSc3ccccc3)c2)n1` were, in that order, 100 µM and 79.4 µM.
Regarding `O=C(OCc1cn2ccccc2n1)c1c2c(nc3ccccc13)CCC2`, the IC50 was 35.5 µM in test [1] and 50.1 µM in test [2].
`CCOC(=O)c1sc(N2C(=O)c3oc4ccc(F)cc4c(=O)c3C2c2ccc(C)cc2)nc1C` (stereo not drawn): the IC50 in test [1] came out at 44.7 µM; in test [2], 50.1 µM.
`Fc1cccc(Cl)c1/C=N/N=C1c2ccccc2-c2ccccc21`: in test [3], the IC50 was found to be 14 µM.
As for `CCOc1cccc2cc(C(=O)OCC(=O)c3c[nH]c4ccccc34)c(=O)oc12`, the concentration for half-maximal inhibition (IC50) in test [1] stood at 14.1 µM; in test [2] it was 22.4 µM.
As to `COc1cc(/C=C/C(=O)OC(C(=O)N2CCCCC2)c2ccccc2)ccc1O` (stereo not drawn), the IC50 in test [1] came to 79.4 µM; in test [2], 70.8 µM.
